Source: patent US20250340519A1, “RADIOLABELLED COMPOUND” (OXFORD UNIVERSITY INNOVATION LIMITED, priority 2018, published 2025)
“And” between values parts separate entries of the source, which are not always exact repeats. Equal values may be shown once.

Tests used:
Panc-1 xenograft = experiment: Ex vivo biodistribution in Panc-1 xenograft bearing mice
Description: Animals were housed in IVC cages in sex-matched groups up to 5 per cage, in an artificial day-night cycle facility, with ad libitum access to food and water. […] CaNT xenografts were generated by harvesting CaNT tumours from donor animals, and injecting a tumour homogenate subcutaneously in the flank of wild type CBA/Carl mice. Tumours were irradiated (10 Gy, 2 Gy/min) using a 300 kV X-ray device.
Biodistribution studies, where selected tissues were harvested, were performed 1 h post injection. Some animals were also administered an excess of cold, unlabelled olaparib for evaluating the specificity of tumour uptake. EF5, a hypoxia-selective marker, was injected 2 h before culling of the animal. Digital autoradiography was performed on tumour sections. Image analysis was performed using PMOD.
Cells were harvested using trypsin, washed twice using PBS, and reconstituted in DMEM. […] Tumour volumes (V) were calculated after calliper measurement using the following equation: V=(a^2×b)/2, where a is the width of the tumour and b the length (small and large diameters, respectively). The individual relative tumour volume (RTV) was defined as Vt/Vo, where Vt is the volume at a given time and Vo at the start of treatment. Animals were entered in in vivo studies when their tumour was at least 200 mm^3.
Two hours prior to PET/CT imaging, animals were exposed to X-irradiation of the tumour (10 Gy or sham) (see schedule in FIG. 13). Radiation was delivered using a Gulmay 320 kV X-irradiator; 2.0 Gy/min. […] Naïve CBA/Carl mice, not bearing tumours, were not irradiated, nor was EF5 administered.
Dynamic PET/CT images were acquired using a VECTor ^4CT integrated PET/CT system. Mice were anaesthetised by 4% isoflurane gas (0.5 L/min O2) and placed on a custom-built imaging cradle in a prone position.
After PET/CT image acquisition, animals were euthanized by cervical dislocation and selected organs, tissues and blood were removed. […] Counts per minute were converted into MBq using a calibration curve generated from known standards. Values were decay-corrected to the time of injection, and the percentage of the injected dose per gram (% ID/g) of each tissue was calculated.

Capan-1 xenograft = experiment: Ex vivo biodistribution in Capan-1 xenograft bearing mice; conditions: for Ex vivo biodistribution Bone / Ex vivo biodistribution Kidney / Ex vivo biodistribution Large intestine / Ex vivo biodistribution Liver / Ex vivo biodistribution Muscle / Ex vivo biodistribution Pancreas / Ex vivo biodistribution Skin / Ex vivo biodistribution Small intestine / Ex vivo biodistribution Spleen / Ex vivo biodistribution Stomach: Capan-1 xenograft mice, 1 h p.i., individual animals; for tumour uptake (group mean): Capan-1 xenografts
Description: All animal procedures were performed in accordance with the UK Animals (Scientific Procedures) Act 1986 and with local ethical committee approval. Animals were housed in IVC cages in sex-matched groups up to 5 per cage, in an artificial day-night cycle facility, with ad libitum access to food and water. Tumour xenografts or allografts were generated by subcutaneous injection of PANC-1 or Capan-1 cell suspensions in the hind flank of balb/c nu/nu animals. CaNT xenografts were generated by harvesting CaNT tumours from donor animals, and injecting a tumour homogenate subcutaneously in the flank of wild type CBA/Carl mice. Tumours were irradiated (10 Gy, 2 Gy/min) using a 300 kV X-ray device.
Dynamic PET/CT images were acquired following an intravenous bolus administration of [^18F]-olaparib. Biodistribution studies, where selected tissues were harvested, were performed 1 h post injection. Some animals were also administered an excess of cold, unlabelled olaparib for evaluating the specificity of tumour uptake. EF5, a hypoxia-selective marker, was injected 2 h before culling of the animal. Digital autoradiography was performed on tumour sections. Image analysis was performed using PMOD.
Cells were harvested using trypsin, washed twice using PBS, and reconstituted in DMEM. Panc-1 or Capan-1 xenograft tumours were established in the right hind flank of female NOD/SCID mice (Charles River, UK) by subcutaneous injection of 1×10^6 cells in PBS:matrigel (150 μL). Tumour volumes (V) were calculated after calliper measurement using the following equation: V=(a^2×b)/2, where a is the width of the tumour and b the length (small and large diameters, respectively). The individual relative tumour volume (RTV) was defined as Vt/Vo, where Vt is the volume at a given time and Vo at the start of treatment. Animals were entered in in vivo studies when their tumour was at least 200 mm^3.
Two hours prior to PET/CT imaging, animals were exposed to X-irradiation of the tumour (10 Gy or sham) (see schedule in FIG. 13). Radiation was delivered using a Gulmay 320 kV X-irradiator; 2.0 Gy/min. Anaesthesia was maintained at 2.5% isoflurane throughout the duration of the irradiation, and animals were allowed to recover. To study the relationship of PARP1 expression, ^18F-olaparib uptake and hypoxia, animals were administered 0.6 μg in 200 μL (0.9% saline) intraperitoneally, one hour prior to PET/CT imaging. Naïve CBA/Carl mice, not bearing tumours, were not irradiated, nor was EF5 administered.
Dynamic PET/CT images were acquired using a VECTor ^4CT integrated PET/CT system. Mice were anaesthetised by 4% isoflurane gas (0.5 L/min O2) and placed on a custom-built imaging cradle in a prone position. Animals mice were intravenously injected with [^18F]-olaparib or (3-5 MBq, 8-11 GBq/μmol, through a tail vein catheter, and dynamic imaging was performed over 45-60 min after radiolabelled compound administration. PET acquisition (150 s per frame, using list mode acquisition) using an ultra-high resolution rat/mouse 1.8 mm collimator, followed by a cone-beam CT scan (55 kV, 0.19 mA) for anatomical reference and attenuation correction. Anaesthesia was maintained at 2.5% isoflurane throughout the duration of the image acquisition. PET images were reconstructed using U-SPECT-Rec3.22 software (MILabs, Utrecht, The Netherlands), applying a pixel-based algorithm with 8 subsets, 6 iterations and 0.8 mm voxel size for ^18F (energy window settings 477.9-584.1 keV).
After PET/CT image acquisition, animals were euthanized by cervical dislocation and selected organs, tissues and blood were removed. The amount of radioactivity in each organ was measured using a 2480 WIZARD^2 gamma counter (PerkinElmer). Counts per minute were converted into MBq using a calibration curve generated from known standards. Values were decay-corrected to the time of injection, and the percentage of the injected dose per gram (% ID/g) of each tissue was calculated.

## O=C(c1cc(Cc2n[nH]c(=O)c3ccccc23)ccc1[18F])N1CCN(C(=O)C2CC2)CC1 [[^18F]olaparib]
Panc-1 xenograft; PANC-1 xenografts, 1 h after i.v. bolus, tracer alone
  tumour uptake (group mean): 3.16±0.36 % ID/g
Panc-1 xenograft; PANC-1 xenografts, 2 h after 10 Gy vs non-irradiated
  increase of tumour uptake after irradiation: 70%
Panc-1 xenograft; PANC-1 xenografts, 2 h after irradiation (10 Gy)
  tumour uptake (group mean): 5.35±1.16 % ID/g
Panc-1 xenograft; PANC-1 xenografts, co-injection of excess cold olaparib
  tumour uptake (group mean): 1.20±0.17 % ID/g
Panc-1 xenograft; Panc-1 xenograft mice, + IR (10 Gy), 1 h p.i., individual animals
  Ex vivo biodistribution Small intestine: 65.1 % ID/g and 113 % ID/g and 95.2 % ID/g
Capan-1 xenograft; + IR (10 Gy)
  Ex vivo biodistribution Bone: 0.31 % ID/g and 0.16 % ID/g and 0.19 % ID/g
  Ex vivo biodistribution Kidney: 4.66 % ID/g and 1.03 % ID/g and 3.67 % ID/g
  Ex vivo biodistribution Large intestine: 5.21 % ID/g and 3.30 % ID/g and 5.86 % ID/g
  Ex vivo biodistribution Liver: 9.16 % ID/g and 5.93 % ID/g and 6.67 % ID/g
  Ex vivo biodistribution Muscle: 0.63 % ID/g and 0.29 % ID/g and 0.48 % ID/g
  Ex vivo biodistribution Pancreas: 1.89 % ID/g and 1.59 % ID/g and 1.84 % ID/g
  Ex vivo biodistribution Skin: 0.67 % ID/g and 0.23 % ID/g and 0.33 % ID/g
  Ex vivo biodistribution Small intestine: 15.58 % ID/g and 9.80 % ID/g and 19.97 % ID/g
  Ex vivo biodistribution Spleen: 0.77 % ID/g and 0.73 % ID/g and 0.82 % ID/g
  Ex vivo biodistribution Stomach: 0.38 % ID/g and 0.36 % ID/g and 0.64 % ID/g
Capan-1 xenograft; + block (excess cold olaparib)
  Ex vivo biodistribution Bone: 2.17 % ID/g and 0.47 % ID/g and 1.27 % ID/g
  Ex vivo biodistribution Kidney: 4.16 % ID/g and 1.26 % ID/g and 3.32 % ID/g
  Ex vivo biodistribution Large intestine: 5.00 % ID/g and 2.91 % ID/g and 4.06 % ID/g
  Ex vivo biodistribution Liver: 9.79 % ID/g and 3.62 % ID/g and 6.88 % ID/g
  Ex vivo biodistribution Muscle: 0.88 % ID/g and 0.28 % ID/g and 0.65 % ID/g
  Ex vivo biodistribution Pancreas: 10.22 % ID/g and 4.56 % ID/g and 10.82 % ID/g
  Ex vivo biodistribution Skin: 1.16 % ID/g
  Ex vivo biodistribution Small intestine: 46.04 % ID/g and 0.45 % ID/g and 11.70 % ID/g
  Ex vivo biodistribution Spleen: 6.43 % ID/g and 2.80 % ID/g and 7.93 % ID/g
  Ex vivo biodistribution Stomach: 0.94 % ID/g and 0.30 % ID/g and 0.49 % ID/g
Capan-1 xenograft; tracer alone
  Ex vivo biodistribution Bone: 1.46 % ID/g and 0.98 % ID/g and 1.26 % ID/g and 3.08 % ID/g
  Ex vivo biodistribution Kidney: 4.32 % ID/g and 2.05 % ID/g and 4.91 % ID/g and 5.22 % ID/g
  Ex vivo biodistribution Large intestine: 4.99 % ID/g and 4.50 % ID/g and 4.14 % ID/g and 8.14 % ID/g
  Ex vivo biodistribution Liver: 11.78 % ID/g and 5.79 % ID/g and 10.32 % ID/g and 22.63 % ID/g
  Ex vivo biodistribution Muscle: 0.65 % ID/g and 0.45 % ID/g and 0.63 % ID/g and 1.44 % ID/g
  Ex vivo biodistribution Pancreas: 9.32 % ID/g and 8.12 % ID/g and 7.87 % ID/g and 13.16 % ID/g
  Ex vivo biodistribution Skin: 0.02 % ID/g and 0.55 % ID/g and 0.77 % ID/g and 1.54 % ID/g
  Ex vivo biodistribution Small intestine: 12.27 % ID/g and 17.29 % ID/g and 11.58 % ID/g and 13.70 % ID/g
  Ex vivo biodistribution Spleen: 9.84 % ID/g and 6.13 % ID/g and 8.40 % ID/g and 15.10 % ID/g
  Ex vivo biodistribution Stomach: 1.55 % ID/g and 0.63 % ID/g and 1.14 % ID/g and 3.42 % ID/g
  tumour uptake (group mean): 2.59±0.32 % ID/g
Capan-1 xenograft; excess cold olaparib
  tumour uptake (group mean): 1.00±0.17
